Measurements published in US20260250320A1, “LIPIDATED PEPTIDE INHIBITORS OF INTERLEUKIN-23 RECEPTOR” (Janssen Pharmaceutica NV, priority 2023, published 2026).
*1 amine or outer side, *2 acyl side, *3 side chain or, on linkers, in order; H or OH if unused. Where a SMILES comes first, the peptide text is derived from it. Bridges are numbered along the chain shown (N, C = ends). Side-chain parts run from the residue outwards. [ ]: non-standard residue; d: D form. The star is where a group is joined. PEG12 = NCCOCCOCCOCCOCCOCCOCCOCCOCCOCCOCCOCCOCCC(=O)O; X42 = O=C(O)CCCCCCCCCCCCCCCCC(=O)N[C@H](CO)CCC(=O)*; CH2CH2OCH2CH2OCH2CH2NMe3+ = C[N+](C)(C)CCOCCOCC*; NH(CH2CH2O)2CH2CH2NMe3+ = C[N+](C)(C)CCOCCOCCN*; Trp(7-Me) = Cc1cccc2c(C[C@H](N)C(=O)O)c[nH]c12; C20 diacid = O=C(O)CCCCCCCCCCCCCCCCCCC(=O)*; C18 diacid = O=C(O)CCCCCCCCCCCCCCCCC(=O)*; γGlu = O=C(O)[C@H](CCC(=O)[*:2])N[*:1]; 2Nal = N[C@@H](Cc1ccc2ccccc2c1)C(=O)O; AEF = NCCOc1ccc(C[C@H](N)C(=O)O)cc1; X2 = C[N+](C)(C)C[C@@H](CC(=O)O)N*; 3Pal = N[C@@H](Cc1cccnc1)C(=O)O; Lys(Me) = CNCCCC[C@H](N)C(=O)O; NMeK = CN[C@@H](CCCCN)C(=O)O; Pen = CC(C)(S)[C@H](N)C(=O)O; Suc = O=C(CCC(=O)[*:2])[*:1]; Thp = NC1(C(=O)O)CCOCC1; X1 = C[N+](C)(C)CCCCC*; AEEA = NCCOCCOCC(=O)O; Sar = CNCC(=O)O

How the values were obtained:
[1] = system: IL-23-stimulated phosphorylated STAT3 in peripheral blood mononuclear cells (PBMCs); assay: PBMC pSTAT3 Assay; assay type: cell-based; conditions: PBMCs from healthy donors; 30 min preincubation with peptide; IL-23 5 ng/mL for 30 min; phospho-STAT3 by MSD
Method: Cryopreserved peripheral blood mononuclear cells (PBMCs) from healthy donors were thawed and washed twice in ImmunoCult-XF T cell expansion medium (XF-TCEM) supplemented with CTL anti-aggregate wash. The cells were counted, resuspended at 2-6×10^5 cells per mL XF-TCEM supplemented with penicillin/streptomycin and 100 ng/mL […] (BioLegend, 579404), and cultured in tissue culture flasks coated with anti-CD3 (eBioscience, 16-0037-85 or BD Pharmingen, 555329) at 37° C. in 5% CO2. On day 4 of culture, PBMCs were collected, washed twice in RPMI-1640 supplemented with 0.1% BSA (RPMI-BSA), and incubated in RPMI-BSA in upright tissue culture flasks for ~4 hours at 37° C. in 5% CO2. Following this 'starvation,' a total of 6×10^4 cells in 30 μL RPMI-BSA was transferred into each well of a 384-well plate pre-spotted with peptide or DMSO. The cells were incubated for 30 minutes prior to the addition of […] at a final concentration of 5 ng/mL. The cells were stimulated with cytokine for 30 minutes at 37° C. in 5% CO2, transferred onto ice for 10 minutes, and lysed. Cell lysates were stored at -80° C. until phosphorylated STAT3 was measured using the phospho-STAT panel kit (Meso Scale Discovery, […]). Results are provided below. • A: IC50<0.5 nM; • B: 0.5 nM≤IC50<5 nM; • C: 5 nM≤IC50; • ND: Not determined

IL-23R = target: T1, IL-23R (Homo sapiens, UniProt Q5VWK5); assay: IL23R Reporter Assay; assay type: cell-based; conditions: HEK293 cells containing IL-23R, IL-12Rβ1 and STAT-inducible firefly luciferase reporter; 10 ng/mL IL-23 (EC90); 5 h
T1 construct: HEK293 cells containing IL-23R, IL-12Rβ1 and a firefly luciferase reporter gene driven by a STAT-inducible promoter (Promega); host or cells: HEK293
T1 sequence (Q5VWK5 24-629): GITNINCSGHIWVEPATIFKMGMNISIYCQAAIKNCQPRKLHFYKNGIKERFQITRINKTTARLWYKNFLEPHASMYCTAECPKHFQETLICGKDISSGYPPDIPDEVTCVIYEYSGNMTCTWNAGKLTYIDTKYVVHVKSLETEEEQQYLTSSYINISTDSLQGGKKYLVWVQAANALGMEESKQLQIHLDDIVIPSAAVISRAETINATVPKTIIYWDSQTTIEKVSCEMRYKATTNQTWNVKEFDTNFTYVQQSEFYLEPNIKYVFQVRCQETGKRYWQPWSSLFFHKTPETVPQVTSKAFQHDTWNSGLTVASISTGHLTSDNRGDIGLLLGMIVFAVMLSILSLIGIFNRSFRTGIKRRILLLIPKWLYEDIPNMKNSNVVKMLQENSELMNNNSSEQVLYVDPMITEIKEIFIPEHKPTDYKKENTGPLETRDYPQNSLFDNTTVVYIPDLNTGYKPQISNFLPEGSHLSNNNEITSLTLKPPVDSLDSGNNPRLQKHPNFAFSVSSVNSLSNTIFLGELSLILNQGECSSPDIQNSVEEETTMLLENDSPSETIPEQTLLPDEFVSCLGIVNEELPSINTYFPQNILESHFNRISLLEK
Method: Compounds were serially diluted in 100% (v/v) DMSO) and plated using an Echo acoustic dispenser (Labcyte) into 1536-well non-treated black assay plates (Corning #9146). 3 μL of HEK293 cells containing IL-23R, IL-12Rβ1 and a firefly luciferase reporter gene driven by a STAT-inducible promoter (Promega) were added to the plates (4000 cells/well), followed by 3 μL of 10 ng/mL IL-23 (equivalent to EC90 concentration). After 5 h at 37° C., 5% CO2, 95% relative humidity, cells were placed at 20° C. and treated with BioGlo reagent (Promega) according to the Manufacturer's instructions. Luminescence was measured on a Pherastar FSX (BMG LabTech). Data were normalized to IL-23 treatment (0% inhibition) and 30 μM of control inhibitor (100% inhibition), and IC50 values were determined using a 4-parameter Hill equation.

## CC(=O)NCCCC[C@@H]1NC(=O)[C@H](Cc2c[nH]c3c(C)cccc23)NC(=O)[C@H]([C@@H](C)O)NC(=O)[C@H](CCCCNC(=O)COCCOCCNC(=O)COCCOCCNC(=O)CC[C@H](NC(=O)CCCCCCCCCCCCCCCCC(=O)O)C(=O)O)NC(=O)[C@@H](NC(C)=O)C(C)(C)SSC(C)(C)[C@@H](C(=O)N[C@@H](Cc2ccc(OCCN)cc2)C(=O)N[C@@H](Cc2ccc3ccccc3c2)C(=O)NC2(C(=O)N[C@@H](CCCCNC(=O)CCC(=O)N[C@H](CC(=O)O)C[N+](C)(C)C)C(=O)N[C@@H](CC(N)=O)C(=O)N[C@@H](Cc3cccnc3)C(=O)N(C)CC(N)=O)CCOCC2)NC1=O [compound 14, MeCO-Pen(3)-K(PEG2PEG2gEC18OH)-T-7MeW-K(Ac)-Pen(3)-AEF-2Nal-THP-K(d)-N-3Pya-Sar-CONH2] (Ac-[Pen]K([AEEA-AEEA-γGlu-C18 diacid])T[Trp(7-Me)]K(Ac)[Pen][AEF][2Nal][Thp]K([Suc-X2])N[3Pal][Sar]-NH2; disulfide 1-6)
[1]
  IC50: < 0.5 nM

## CC(=O)NCCCC[C@@H]1NC(=O)[C@H](Cc2c[nH]c3c(C)cccc23)NC(=O)[C@H]([C@@H](C)O)NC(=O)[C@H](CC(N)=O)NC(=O)[C@@H](NC(=O)[C@@H](CCCNC(=N)N)NC(C)=O)C(C)(C)SSC(C)(C)[C@@H](C(=O)N[C@@H](Cc2ccc(OCCNC(=O)CCC(=O)N[C@H](CC(=O)O)C[N+](C)(C)C)cc2)C(=O)N[C@@H](Cc2ccc3ccccc3c2)C(=O)NC2(C(=O)N[C@@H](CCC(=O)O)C(=O)N[C@@H](CC(N)=O)C(=O)N[C@@H](Cc3cccnc3)C(=O)N(C)[C@@H](CCCCNC(=O)COCCOCCNC(=O)COCCOCCNC(=O)CC[C@H](NC(=O)CCCCCCCCCCCCCCCCC(=O)O)C(=O)O)C(N)=O)CCOCC2)NC1=O [compound 16, MeCO-r-Pen(3)-N-T-7MeW-K(Ac)-Pen(3)-AEF(d)-2Nal-THP-E-N-3Pya-NMeK(PEG2PEG2gEC18OH)-CONH2] (Ac-[dR][Pen]NT[Trp(7-Me)]K(Ac)[Pen][AEF]([Suc-X2])[2Nal][Thp]EN[3Pal][NMeK]([AEEA-AEEA-γGlu-C18 diacid])-NH2; disulfide 2-7)
[1]
  IC50: < 0.5 nM

## CC(=O)NCCCC[C@@H]1NC(=O)[C@H](Cc2c[nH]c3c(C)cccc23)NC(=O)[C@H]([C@@H](C)O)NC(=O)[C@H](CC(N)=O)NC(=O)[C@@H](NC(=O)[C@@H](CCCCNC(=O)COCCOCCNC(=O)COCCOCCNC(=O)CC[C@@H](CO)NC(=O)CCCCCCCCCCCCCCCCC(=O)O)NC(C)=O)C(C)(C)SSC(C)(C)[C@@H](C(=O)N[C@@H](Cc2ccc(OCCNC(=O)CCC(=O)N[C@H](CC(=O)O)C[N+](C)(C)C)cc2)C(=O)N[C@@H](Cc2ccc3ccccc3c2)C(=O)NC2(C(=O)N[C@@H](CCC(=O)O)C(=O)N[C@@H](CC(N)=O)C(=O)N[C@@H](Cc3cccnc3)C(=O)N(C)CC(N)=O)CCOCC2)NC1=O [compound 17, MeCO-k(PEG2PEG2gEC18OH)-Pen(3)-N-T-7MeW-K(Ac)-Pen(3)-AEF(d)-2Nal-THP-E-N-3Pya-Sar-CONH2] (Ac-[dK]([AEEA-AEEA-X42])[Pen]NT[Trp(7-Me)]K(Ac)[Pen][AEF]([Suc-X2])[2Nal][Thp]EN[3Pal][Sar]-NH2; disulfide 2-7)
[1]
  IC50: < 0.5 nM

## CC(=O)NCCCC[C@@H]1NC(=O)[C@H](Cc2c[nH]c3c(C)cccc23)NC(=O)[C@H]([C@@H](C)O)NC(=O)[C@H](CC(N)=O)NC(=O)[C@@H](NC(=O)[C@@H](CCCNC(=N)N)NC(C)=O)C(C)(C)SSC(C)(C)[C@@H](C(=O)N[C@@H](Cc2ccc(OCCN)cc2)C(=O)N[C@@H](Cc2ccc3ccccc3c2)C(=O)NC2(C(=O)N[C@@H](CCC(=O)O)C(=O)N[C@@H](CC(N)=O)C(=O)N[C@@H](Cc3cccnc3)C(=O)N(C)CC(=O)N[C@@H](CCCCNC(=O)COCCOCCNC(=O)COCCOCCNC(=O)CC[C@H](NC(=O)CCCCCCCCCCCCCCCCC(=O)O)C(=O)O)C(=O)NCCOCCOCC[N+](C)(C)C)CCOCC2)NC1=O [compound 40, MeCO-r-Pen(3)-N-T-7MeW-K(Ac)-Pen(3)-AEF-2Nal-THP-E-N-3Pya-Sar-K(PEG2PEG2gEC18OH)-CONH(PEG3a)] (Ac-[dR][Pen]NT[Trp(7-Me)]K(Ac)[Pen][AEF][2Nal][Thp]EN[3Pal][Sar]K([AEEA-AEEA-γGlu-C18 diacid])-{NH(CH2CH2O)2CH2CH2NMe3+}; disulfide 2-7)
[1]
  IC50: 0.5 to 5 nM

## CC(=O)N(C)CCCC[C@@H]1NC(=O)[C@H](Cc2c[nH]c3c(C)cccc23)NC(=O)[C@H]([C@@H](C)O)NC(=O)[C@H](CC(=O)N(C)C)NC(=O)[C@@H](NC(=O)CCOCCOCCOCCOCCOCCOCCOCCOCCOCCOCCOCCOCCNC(=O)CC[C@H](NC(=O)CCCCCCCCCCCCCCCCCCC(=O)O)C(=O)O)C(C)(C)SSC(C)(C)[C@@H](C(=O)N[C@@H](Cc2ccc(OCCCCC[N+](C)(C)C)cc2)C(=O)N[C@@H](Cc2ccc3ccccc3c2)C(=O)NC2(C(=O)N[C@@H](CCCCN(C)C(C)=O)C(=O)N[C@@H](CC(N)=O)C(=O)N[C@@H](Cc3cccnc3)C(=O)N(C)CC(=O)N(C)C)CCOCC2)NC1=O [compound 94, HOC20gEPEG12CO-Pen(3)-N(N(Me)2)-T-7MeW-K(NMeAc)-Pen(3)-TMAPF-2Nal-THP-K(NMeAc)-N-3Pya-Sar-CON(Me)2] ({C20 diacid-γGlu-PEG12}-[Pen]D(NMe2)T[Trp(7-Me)][Lys(Me)](Ac)[Pen]Y(X1)[2Nal][Thp][Lys(Me)](Ac)N[3Pal][Sar]-NMe2; disulfide 1-6)
IL-23R
  IC50: < 50 nM

## CC(=O)NCCCC[C@@H]1NC(=O)[C@H](Cc2c[nH]c3c(C)cccc23)NC(=O)[C@H]([C@@H](C)O)NC(=O)[C@H](CC(N)=O)NC(=O)[C@@H](NC(C)=O)C(C)(C)SSC(C)(C)[C@@H](C(=O)N[C@@H](Cc2ccc(OCCN)cc2)C(=O)N[C@@H](Cc2ccc3ccccc3c2)C(=O)NC2(C(=O)N[C@@H](CCC(=O)O)C(=O)N[C@@H](CC(N)=O)C(=O)N[C@@H](Cc3cccnc3)C(=O)N(C)CC(=O)NCCOCCOCCOCCOCCOCCOCCOCCOCCOCCOCCOCCOCCNC(=O)CC[C@H](NC(=O)CCCCCCCCCCCCCCCCC(=O)O)C(=O)O)CCOCC2)NC1=O [compound 135, MeCO-Pen(3)-N-T-7MeW-K(Ac)-Pen(3)-AEF-2Nal-THP-E-N-3Pya-Sar-CO(PEG12gEC18OH)]
IL-23R
  IC50: 50 to 500 nM

## CC(=O)N(C)CCCC[C@@H]1NC(=O)[C@H](Cc2c[nH]c3c(C)cccc23)NC(=O)[C@H]([C@@H](C)O)NC(=O)[C@H](CC(=O)N(C)C)NC(=O)[C@@H](NC(=O)COCCOCCNC(=O)COCCOCCNC(=O)CC[C@H](NC(=O)CCCCCCCCCCCCCCCCC(=O)O)C(=O)O)C(C)(C)SSC(C)(C)[C@@H](C(=O)N[C@@H](Cc2ccc(OCCOCCOCC[N+](C)(C)C)cc2)C(=O)N[C@@H](Cc2ccc3ccccc3c2)C(=O)NC2(C(=O)N[C@@H](CCCCN(C)C(C)=O)C(=O)N[C@@H](CC(N)=O)C(=O)N[C@@H](Cc3cccnc3)C(=O)N(C)CC(=O)N(C)C)CCOCC2)NC1=O [compound 155, HOC18gEPEG2PEG2CO-Pen(3)-N(N(Me)2)-T-7MeW-K(NMeAc)-Pen(3)-APEG3F-2Nal-THP-K(NMeAc)-N-3Pya-Sar-CON(Me)2] ({C18 diacid-γGlu-AEEA-AEEA}-[Pen]D(NMe2)T[Trp(7-Me)][Lys(Me)](Ac)[Pen]Y(CH2CH2OCH2CH2OCH2CH2NMe3+)[2Nal][Thp][Lys(Me)](Ac)N[3Pal][Sar]-NMe2; disulfide 1-6)
IL-23R
  IC50: < 50 nM
